Conditions: a range is the spread between reports

| SMILES | melting point [°C] |
| --- | --- |
| BrC(c1ccccc1)(c1ccccc1)c1ccccc1 | 153 to 154 |
| C=CCCCCC(=O)O | -6.5 to -6 |
| CCC(C)(C)O | -12 to -8 |
| c1cncnc1 | 21 to 22 |
| O=C1CC[C@@H](C(=O)O)N1 | 160 to 162 |
| C1CCOCC1 | -49 to -45 |
| NNc1ccccc1 | 19 to 19.6 |
| BrCCCCBr | -20 to -16.5 |
| O=c1c2ccccc2sc2ccccc12 | 209 to 212 |
| CCCCC(C)CCCC | -88 to -87.7 |
| CCCCCCCCCCCCCCCCCC(C)=O | 55 to 57 |
| O=C(CCl)c1ccc(Cl)cc1 | 101 to 102 |
| CCCC(=O)CC | -55.5 to -55 |
| O=C(Cl)c1ccc(Cl)cc1 | 12 to 16 |
| COc1c(F)c(F)c(F)c(F)c1F | -38 to -37 |
| C#CC(C)(C)C | -78.2 to -78 |
| c1ccc2c(c1)CCc1ccccc1N2 | 106 to 107 |
| O=Cc1ccc2c(c1)OCO2 | 36 to 37 |
| Cc1cccc([N+](=O)[O-])c1 | 15.5 to 16 |
| c1ccc(-c2ccc(-c3ccccc3)o2)cc1 | 88 to 91 |
| C#CCC(C)C | -105 |
| N#Cc1c(Cl)cccc1Cl | 143 to 145 |
| C=CCC(C(=O)O)C(=O)O | 104 to 105 |
| O=C(CCC(=O)OCc1ccccc1)OCc1ccccc1 | 45 to 49.5 |
| OC(COc1ccccc1)COc1ccccc1 | 81.5 to 82 |
| NCC(CC(=O)O)c1ccc(Cl)cc1 (stereo not drawn) | 207 to 208 |

| SMILES | melting point [°C] |
| --- | --- |
| CC12CCC(C(Br)C1=O)C2(C)C (stereo not drawn) | 76 to 77 |
| Brc1sc(Br)c(Br)c1Br | 115 to 118 |
| CCCCCCCCS | -49.2 to -49 |
| C1CSCCS1 | 111 to 112 |
| C1CCSC1 | -96.1 to -96 |
| O=C(O)C(F)(F)Cl | 22 to 25 |
| CCCCC(CC)COC(=O)c1ccccc1C(=O)OCC(CC)CCCC (stereo not drawn) | -55 to -50 |
| NCCCCCCCN | 28 to 28.9 |
| CC(C)CC(N)=O | 136 to 137 |
| O=C=Nc1ccc([N+](=O)[O-])cc1 | 57 to 58 |
| Cc1ccc(O)cc1Cl | 52 to 55.5 |
| CCCCCCCCCCCC(=O)O | 43.2 to 45 |
| CCCCCCC=CCCCCCCCC(=O)O | -0.1 to 0.5 |
| NCCCCCCN | 39 to 41.5 |
| Cc1cc(C)cc(C)c1 | -45 to -44.7 |
| NCCCCCCO | 56 to 57 |
| O=C(O)c1c(F)c(F)c(F)c(F)c1F | 101 to 102 |
| O=C(c1ccccc1)c1ccc(-c2ccccc2)cc1 | 100 to 101 |
| S=C=Nc1ccc(Cl)cc1 | 45 to 46 |
| FC(F)(F)c1ccccc1 | -29.1 to -27 |
| CC(C)C1(C)N=C(c2ncccc2C(=O)O)NC1=O (stereo not drawn) | 171 to 172 |
| C=CC#N | -84 to -83.5 |
| CC(C)CCC(=O)O | -35 to -33 |
| O=S(=O)(Cl)Cl | -54.1 to -54 |
| CN1CCC(=C2c3ccccc3C=Cc3ccccc32)CC1 | 112 to 113 |
| c1ccc(Cc2ccccn2)cc1 | 10 to 12.5 |

| SMILES | melting point [°C] |
| --- | --- |
| COc1cc(OC)c(OC)cc1C=O | 113 to 114 |
| c1ccc2c(c1)cc1ccc3cccc4ccc2c1c34 | 176 to 179 |
| N#CCc1ccc([N+](=O)[O-])cc1 | 116 to 117 |
| CN(C)C=O | -61 to -60.4 |
| CC(C)C(C)C | -129 to -128 |
| Clc1cc(Cl)c(Cl)nc1Cl | 90.5 to 91 |
| Oc1cccc2cccnc12 | 74 to 76 |
| ClCc1ccc(Cl)cc1Cl | -3 to -2.6 |
| Cc1nc(-c2ccc(-c3nc(C)c(-c4ccccc4)o3)cc2)oc1-c1ccccc1 | 232 to 234 |
| CCCCCCCCCS | -20.1 to -20 |
| CCCCCCCCCCCCCCCCCCBr | 28 to 28.2 |
| CC1CC1(C)C (stereo not drawn) | -138 |
| O=C1CCCC1 | -51.9 to -51 |
| CCC(Br)CC | -126 |
| COC(=O)c1ccccc1C(=O)OC | 2 to 5.5 |
| Fc1ccc(N=C=S)cc1 | 26 to 27 |
| CCCCCCCCCCCCCCC(C)O (stereo not drawn) | 44 to 47 |
| Nc1nc(Cl)cc(Cl)n1 | 220 |
| C#CC1(O)CCCCC1 | 31.5 to 33 |
| Cc1cc(-c2ccc(N)c(C)c2)ccc1N | 130 to 132 |
| Clc1c(Cl)c(Cl)c(Cl)c(Cl)c1Cl | 228 to 232 |
| C=CCCCCCCCCCC | -37 to -35 |
| CC1=C(C)CCCC1 | -84.1 to -84 |
| CCCCOc1ccccc1 | -19.4 to -19 |
| N#CCc1ccc(CC#N)cc1 | 95 to 96 |
| CCCCCO | -79 to -78 |

| SMILES | melting point [°C] |
| --- | --- |
| CC12CCC(CC1)C(C)(C)O2 | 1 to 1.5 |
| Fc1c(F)c(F)c(-c2c(F)c(F)c(F)c(F)c2F)c(F)c1F | 67 to 68 |
| Oc1ccccc1I | 38.5 to 43 |
| O=c1cn[nH]c(=O)[nH]1 | 274 to 276 |
| O=C(c1ccccc1)C1CCCCC1 | 55 to 56 |
| c1ccoc1 | -85.6 to -85 |
| CCCCCC(=O)CCCCC | 14.5 to 15 |
| O=C1CSC(=S)N1 | 169 to 170 |
| OCc1ccc2c(c1)OCO2 | 53 to 58 |
| C=CC(C)(C)C | -115 |
| N#CC(Br)(Br)C(N)=O | 124 |
| O=CNc1ccccc1 | 46 to 47 |
| O=C(O)CCCC(=O)O | 96.5 to 97.8 |
| CCOC(=O)CCl | -26 to -21 |
| NCCN | 8.5 to 11.1 |
| BrCCCOc1ccccc1 | 10 to 10.7 |
| CCCCCCCCCCC | -26 to -25.6 |
| CCCCN | -50 to -49 |
| Cc1nnc(N)s1 | 224 to 225 |
| COC(=O)CCC(=O)O | 57.5 to 58 |
| Clc1ncccn1 | 66 to 67 |
| O=C1CCC(=O)O1 | 119 to 120 |
| CC(Br)CBr (stereo not drawn) | -55.5 to -55 |
| ClC=C(Cl)Cl | -85 to -84.7 |
| CC1(C(=O)O)CCCCC1 | 37.5 to 38 |

Second part, the compound after the results:

| melting point [°C] | SMILES |
| --- | --- |
| 221 to 225 | COc1ccc(-c2cc(=O)c3c(O)c(OC)c(O)cc3o2)cc1 |
| 48 to 50 | O=C=Nc1cccc(N=C=O)c1 |
| 80 to 83 | COC(=O)c1ccc(Cl)c([N+](=O)[O-])c1 |
| 54 to 56 | O=[N+]([O-])c1cccc(Br)c1 |
| 151 to 153 | NS(=O)(=O)c1ccccc1 |
| -8 to -7 | COc1cccc(C(C)=O)c1 |
| 127 to 131 | COC(=O)c1ccc(O)cc1 |
| -40 to -39.8 | Cc1cccc(Br)c1 |
| 4.5 to 6 | O=C(CO)c1ccccc1 |
| 98 to 99 | CC(=O)c1cccc(C#N)c1 |
| 171 to 173 | CC(=O)c1ccc(O)c(O)c1O |
| 57.5 to 59 | COc1ccc(CCCC(=O)O)cc1 |
| 165 to 166 | Cc1cccc(C(=O)O)c1O |
| 15 to 17 | CC(C)(C)c1ccc(N)cc1 |
| 65 to 65.5 | CC(=O)Nc1cccc(C)c1 |
| 79 to 82 | CNC(=O)c1ccccc1 |
| 74 to 76 | COc1cc(C=CCO)ccc1O |
| 34.8 to 36 | N#Cc1ccc(F)cc1 |
| 187 to 188 | O=C(O)c1cccc(I)c1 |
| 208 | O=[N+]([O-])c1ccc2nc[nH]c2c1 |
| 210 to 212 | O=C(O)c1cccc([N+](=O)[O-])c1C(=O)O |
| 181 to 182 | O=C(O)c1ccc(CO)cc1 |
| 160 to 161 | O=C(O)Cc1ccc(-c2ccccc2)cc1 |
| 113 to 115 | Oc1cc(O)c(Cl)cc1Cl |

| melting point [°C] | SMILES |
| --- | --- |
| 54 to 54.5 | COC(=O)c1cccc(I)c1 |
| 46 to 47 | COc1cc(C=O)cc(OC)c1 |
| 10 to 13.7 | Oc1cccc(F)c1 |
| 126 to 127 | COc1ccc(NC(=O)N(C)C)cc1Cl |
| 32.5 to 34 | N#CCc1cccc2ccccc12 |
| -30 to -29 | Cc1cnccn1 |
| 97 to 98 | OCc1c(Cl)cccc1Cl |
| 58 to 60 | CCOc1ccc([N+](=O)[O-])cc1 |
| -2 to -0.8 | Nc1ccc(F)cc1 |
| 170 to 175 | Oc1ccc(O)cc1 |
| -9 to -7 | COC(=O)c1ccccc1O |
| 49 to 50 | COC(=O)c1ccc(OC)cc1 |
| 40.5 to 41 | COc1cc(CCC(C)=O)ccc1O |
| 5 to 7.1 | Brc1ccccc1Br |
| 121 to 122 | C=C(CC)C(=O)c1ccc(OCC(=O)O)c(Cl)c1Cl |
| -5 to -2.4 | O=[N+]([O-])c1cccc(C(F)(F)F)c1 |
| 32 to 33 | c1csc(-c2cccs2)c1 |
| 126 to 128 | O=C1Cc2ccccc2N1 |
| 116 to 118 | NC(=O)c1ccccc1F |
| 158 to 159 | O=C(O)c1c(F)cccc1F |
| 61 to 64 | OCc1cccc2ccccc12 |
| 101 to 102 | Oc1ccc(O)c(-c2ccccc2)c1 |
| -28 to -27.5 | CCc1cccc(-c2ccccc2)c1 |
| -63.1 to -63 | CCc1ccccn1 |

| melting point [°C] | SMILES |
| --- | --- |
| -83 to -82.7 | CCc1ccccc1Cl |
| 56 to 58 | O=Cc1cc(Cl)ccc1Cl |
| 155 to 157 | O=C(O)c1cc(Br)ccc1Br |
| 7 to 8 | O=C1CCCc2ccccc21 |
| 300 to 302 | O=c1c(-c2ccc(O)cc2)coc2cc(O)cc(O)c12 |
| 120 to 122 | Nc1cccc(N)n1 |
| 51 to 54 | Nc1cc(Br)ccc1Br |
| 36 to 38 | Clc1ccc2ccccc2n1 |
| 61.5 to 62 | COc1ccc(C(=O)c2ccccc2)cc1 |
| 74 to 76.7 | OCCOc1ccc2ccccc2c1 |
| 15 to 16.5 | Cc1cnc2ccccc2c1 |
| 65 to 68 | Cc1ccc(O)c(O)c1 |
| 188 to 189 | Nc1ccc(O)cc1 |
| 76 to 76.5 | Cc1ccc2oc(=O)ccc2c1 |
| 143 to 144 | Nc1cc([N+](=O)[O-])ccc1O |
| -96 to -95.5 | CCc1cccc(C)c1 |
| 257 to 258 | NS(=O)(=O)c1cc(C(=O)O)ccc1Cl |
| 143 to 144 | O=C(O)c1c(Cl)cccc1Cl |
| 112 to 116 | Cc1ccc2[nH]cnc2c1 |
| -63.1 to -63 | CC(C)c1cccc(C(C)C)c1 |
| -18.1 to -18 | Cc1cccnc1 |
| 61 to 66 | Clc1cccc(Cl)c1Br |
